Test system: Human immunodeficiency virus 1
Experiment: Cytopathogenic effect was evaluated against Human immunovirus-1 (HIV-1).
Format: functional

Nc1ncnc2c1ncn2[C@@H]1O[C@H](CO)[C@H]1CO
Protective dose: 100 µM

Nc1ncnc2c1ncn2[C@H]1C[C@H](CO)[C@@H](CO)O1
Protective dose: 10 µM

Source: ChEMBL document CHEMBL1125738, “A ring-enlarged oxetanocin A analogue as an inhibitor of HIV infectivity” (1991)
